# Source: PubChem BioAssay (NCI)
# Where “and” joins values, the source holds several entries; their conditions need not be identical. Equal values may be shown once.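 1) Cells in 96-well plates. 2) Compound, 48 h, 5 concentrations. 3) Linear interpolation between surrounding doses. 4) Unreached endpoint = highest concentration. The concentration for 50% growth inhibition is given as GI50. The concentration for full growth arrest is given as TGI.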
# Tests used:
# Assay in all cases: inhibition of tumour cell growth, NCI panel, 48 h
# [1] = system: M14 melanoma
# [2] = system: TK-10 renal
# [3] = system: CAKI-1 renal
# [4] = system: HCT-15 colon
# [5] = system: MDA-MB-435
# [6] = system: SNB-75 CNS
# [7] = system: SK-MEL-5 melanoma
# [8] = system: KM12 colon
# [9] = system: IGROV1 ovarian
# [10] = system: SR leukemia
Structure (SMILES),TGI [1],TGI [2],TGI [3] [µM],TGI [4] [µM],TGI [5] [µM],TGI [6],TGI [7],TGI [8],GI50 [1] [µM],GI50 [2] [µM],GI50 [3] [µM],GI50 [5] [µM],GI50 [7] [µM],TGI [9],TGI [10] [µM]
NCCCNCCCCN1CC1,> 22.6 µM,> 23.2 µM,0.407,> 33.2,> 100,4.3 µM,11.7 µM,> 30.7 µM,,,,,,,
COc1ccc2nc3cc(Cl)ccc3c(NCCNc3c4ccc(Cl)cc4nc4ccc(OC)cc34)c2c1,3.58 µM,3.42 µM,3.18,,3.21,,3.27 µM,,1.96,1.97,1.72,1.76,1.81,,
NC(N)=NCCCC(NC(=O)OCCCCn1ccc(N)nc1=O)C(=O)O (stereo unspecified),> 100 µM,> 100 µM,> 100,> 100,> 100,> 100 µM,,> 100 µM,,,,,,> 100 µM,> 100
NC(CSSCC(N)Cc1ccccc1)Cc1ccccc1 (stereo unspecified),63.4 µM,> 100 µM,,> 100,,,50.4 µM,94 µM,,,,,,> 100 µM,91.7
CC(=O)c1c2n(n(-c3ccccc3)c1=O)C(=O)c1nccnc1-2,> 100 µM,,> 100,> 100,> 100,> 100 µM,> 100 µM,> 100 µM,,,,,,> 100 µM,> 100
O=C(CSc1nc2ccccc2c(=O)n1-c1ccccc1)N=Nc1c(O)[nH]c2ccc(F)cc12,4.57 µM,,3.46,,> 100,,15.4 µM,32.6 µM,,,,,,,4.21
COC(=O)C(NC(=O)c1ccccc1)C(c1ccc(Cl)cc1)P(=O)(OC)OC (stereo unspecified),> 100 µM,> 100 µM,> 100,> 100,,> 100 µM,> 100 µM,> 100 µM,,,,,,> 100 µM,> 100
OC(CC(O)(C(F)(F)F)C(F)(F)F)c1ccc(C(O)CC(O)(C(F)(F)F)C(F)(F)F)cc1 (stereo unspecified),29.9 µM,,27.3,42.8,32.7,31.8 µM,27.3 µM,,,,,,,23.3 µM,40.2
CCOc1ccc2c(c1)c(=O)c1c(NCCN(CC)CC)ccc3nnn2c31,> 54.8 µM,37.9 µM,41.6,48.2,32.5,,31.1 µM,37.1 µM,,,,,,30.3 µM,50.1
CCC[C@@H]1C(=O)N=C(N)N1C(=O)OCc1ccccc1,,> 100 µM,> 100,> 100,> 100,> 100 µM,> 100 µM,> 100 µM,,,,,,> 100 µM,> 100
Cc1ccc(-n2cc([Si](C)(C)C)nn2)s1,> 100 µM,> 100 µM,> 100,> 100,> 100,,> 100 µM,,,,,,,,
C=CC(C)(C)C(=C)C(=O)Nc1ccccc1I,> 100 µM,,> 100,> 100,> 100,> 100 µM,> 100 µM,> 100 µM,,,,,,,> 100
O=c1c2ccccc2nc(N/N=C/c2ccccc2O)n1-c1ccccc1,> 100 µM,> 100 µM,> 100,> 100,> 100,> 100 µM,> 100 µM,,,,,,,> 100 µM,
COC1OC2=CCC3C(=O)NC(=O)C3C2[C@H](OCc2ccccc2)C1OCc1ccccc1 (stereo partly specified),3.19 µM,3.12 µM,,3.86,,31.5 µM,34.1 µM,19.4 µM,,,,,,3.86 µM,
C/C=C(/C)C(=O)O[C@H]1[C@H](O)CC(c2ccc3c(c2O)C(O)=C2C(=O)C4(OC)C(O)=C(C(N)=O)C(=O)[C@H](CC(=O)c5ccccc5O)C4CC2[C@@]3(C)OC)O[C@@H]1C (stereo partly specified),2.13 µM and 1.34 µM,6.19 µM and 4.65 µM,,18.1,1.64,2.05 µM and 0.705 µM,0.0149 µM and 0.0199 µM,0.226 µM and 0.0935 µM,,,,,,2.48 µM and 0.341 µM,0.355
CCOC(=O)N1CCC(=C2c3ccc(Cl)cc3CCc3cccnc32)CC1,29.1 µM,29.3 µM,,23.4,24.9,,9.22 µM,24.3 µM,,,,,,8.22 µM,14.2
N#CC(C#N)=C1C(=O)NC(N)=C1C#N,> 100 µM,> 100 µM,> 100,> 100,> 100,,> 100 µM,> 100 µM,,,,,,> 100 µM,
COc1ccc(C2=NN=C3C(c4ccccc4)=Nc4ccccc4N3C2)cc1,83.8 µM,> 100 µM,,> 100,> 100,,> 100 µM,> 100 µM,,,,,,> 100 µM,49.5
COc1cc(Br)c(CC2C3=C(CCN2C(=O)C2CCC2)CC(=O)CC3)cc1O (stereo unspecified),> 100 µM,> 100 µM,,47.5,35.7,71.1 µM,> 100 µM,73.3 µM,,,,,,> 100 µM,> 100
CN(Cc1cc(Cl)c(Cl)cc1NC(=O)CN)[C@H]1CCCC[C@@H]1N1CCCC1,33.2 µM,> 100 µM,> 100,,32.9,> 100 µM,32.1 µM,> 100 µM,,,,,,> 100 µM,49.9
CCCC(=O)[O-].N.N.N.N.N.[Co+3].[O-][Cl+3]([O-])([O-])[O-],> 100 µM,> 100 µM,,> 100,,> 100 µM,> 100 µM,> 100 µM,,,,,,> 100 µM,
C=CCC(C(=O)Nc1cccc2[nH]cnc12)C(=O)OCC (stereo unspecified),> 100 µM,> 100 µM,,> 100,> 100,> 100 µM,,> 100 µM,,,,,,> 100 µM,> 100
COc1ccc(Sc2ccccc2N)cc1,> 100 µM,> 100 µM,,> 100,,62.2 µM,62.9 µM,> 100 µM,,,,,,> 100 µM,> 100
Oc1ccc(Cl)cc1C1=NC(/N=C\c2ccccc2)=NC(c2ccccc2)C1 (stereo unspecified),> 100 µM,> 100 µM,28.1,,> 100,64.7 µM,61.2 µM,> 100 µM,,,,,,> 100 µM,45
